From patent publication US5037837A, “Phenoxypropylamine derivatives or salts thereof and antiulcer agents containing the same” (Terumo Kabushiki Kaisha, priority 1989, dated 1991)

Experiments:
[1] = molecular target: T1, 5-lipoxygenase (Rattus norvegicus, UniProt P12527); assay: 5-Lipoxygenase-inhibiting activity; type: biochemical; settings: RBL-1 cell supernatant; arachidonic acid 50 μg; 37° C., 15 min; 5-HETE by HPLC; read-out: 5-Lipoxygenase inhibiting activity, 50% Inhibition conc.
T1 construct: The supernatant is employed as an enzyme solution of a 5-lipoxygenase; endogenous in cells; host or cells: RBL-1 rat basophilic leukemia cells (supernatant of sonicated cells)
T1 sequence (P12527 1-673): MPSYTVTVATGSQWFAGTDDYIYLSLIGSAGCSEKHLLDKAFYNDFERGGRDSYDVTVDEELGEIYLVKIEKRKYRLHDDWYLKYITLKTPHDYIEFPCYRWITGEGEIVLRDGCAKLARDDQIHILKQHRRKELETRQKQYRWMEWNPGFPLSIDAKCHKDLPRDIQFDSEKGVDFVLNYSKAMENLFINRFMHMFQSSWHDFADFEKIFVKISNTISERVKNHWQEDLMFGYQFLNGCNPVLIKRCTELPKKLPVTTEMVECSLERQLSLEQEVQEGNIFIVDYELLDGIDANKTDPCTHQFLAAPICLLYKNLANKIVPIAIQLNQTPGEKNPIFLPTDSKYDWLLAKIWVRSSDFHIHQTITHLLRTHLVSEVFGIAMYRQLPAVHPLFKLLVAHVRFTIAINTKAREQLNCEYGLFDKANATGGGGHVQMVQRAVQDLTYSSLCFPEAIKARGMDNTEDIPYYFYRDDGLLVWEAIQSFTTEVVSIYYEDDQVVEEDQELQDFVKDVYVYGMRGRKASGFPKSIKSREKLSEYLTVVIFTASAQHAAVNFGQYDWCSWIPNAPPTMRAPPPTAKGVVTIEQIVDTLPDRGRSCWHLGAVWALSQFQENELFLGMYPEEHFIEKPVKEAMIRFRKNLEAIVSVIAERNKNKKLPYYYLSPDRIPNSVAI
Experimental: A suspension of rat-origin basophilic leukemia cell strain RBL-1 in an Eagle basal medium (manufactured by Gibco Laboratories) containing 10% FCS is cultivated in a 5% CO2 incubator at 37° C. The culture is then centrifuged at 4° C. to collect cells. The cells are re-suspended in a phosphate buffer solution at pH 7.4 to a cell density of 1.0×10^7 -3.0×10^7 cells/ml. The suspended cells are treated by an ultrasonic cell blender and then centrifuged at 15,000 rpm at 4° C. for 30 min. The supernatant is employed as an enzyme solution of a 5-lipoxygenase. In test tubes are placed 50 μg of arachidonic acid and a phenol derivative of the invention to be tested. To each of the test tubes are added 0.30 ml of phosphate buffer, 0.20 ml of the enzyme solution as prepared above and 5 μl of a 100 mM CaCl2 (calcium chloride) solution. The mixture is allowed to react at 37° C. for 15 min. To the reaction mixture, after ice-cooling, is added one drop of 1N HCl (hydrochloric acid), and the resulting mass is extracted with 2 ml of ethyl acetate. The extract is concentrated to dryness followed by the addition of 100 μl of methanol for use as a test specimen.
Said specimen is injected into octadecylsilane (ODS) reverse phase high performance liquid chromatography (HPLC), eluted with methanol - acetonitrile - water - acetic acid (15:45:35:0.01). Peak for 5-HETE (5-(s)-hydroxy-6,8,11,14-eicosatetraenoic acid), a 5-lipoxygenase product detected in approximately 25 min. is measured. The 5-lipoxygenase-inhibiting activity is determined by decrease in the peak for said 5-lipoxygenase product.
50% inhibitory concentration as referred to in the table means concentration of a phenol derivative required for controlling the production of […] as described above to 50% by introducing said phenol derivative when production of 5-HETE without phenol derivative of the invention is taken as 100%.

[2] = tested on: ethanol hydrochloric acid ulcer; assay: Inhibitory activity against ethanol hydrochloric acid ulcer; type: in vivo; settings: SD male rats, 30 mg/kg orally, 1 hour before 150 mM HCl in 60% ethanol
Experimental: To SD male rats (weighing 150-250 g) fasted for 24 hours was administered orally a phenol derivative of the invention at a dose of 30 mg/kg bodyweight. One hour later, a hydrochloric acid solution in ethanol (containing 150 mM hydrochloric acid in 60% ethanol) was orally given in a volume of 0.5 ml/100 g bodyweight.
One hour later, the animals were sacrificed with ether. The stomach was excised and, after formalin treatment, measured for the length (mm) of lesions developed in glandular portions of the stomach. Total length of the lesions per animal was taken as ulcer index.
Percent inhibition of ulceration as referred to in the table is a value obtained by reducing from 1 the ulcer index for the rat with a phenol derivative of the invention orally given divided by the ulcer index for the orally nonadministered rat and multiplying the value by 100. The calculation is conducted by the formula shown below. [formula]

[3] = molecular target: T2, histamine H2 receptors (Cavia porcellus, UniProt P47747); assay: Antagonistic action against histamine H2 receptors (isolated right atrium); parameters: species or system Hartley male guinea pigs; settings: guinea pig isolated right atrium, 30° C.; concentration for two-fold shift of the histamine dose-response curve; read-out: Antagonistic action against histamine H2 receptors, pA2 (converted)
T2 construct: Excised right atrium of Hartley male guinea pigs; from tissue; host or cells: isolated right atrium of male Hartley guinea pigs
Experimental: Excised right atrium of Hartley male guinea pigs (weighing 450-550 g) was used. Thus, the guinea pig was fainted by strongly hitting the occipital region, and then the chest opened to isolate the heart. The isolated heart was immersed in a Krebs-Henseleit nutrient solution at 30° C. which had sufficiently been aerated with 95% O2 +5% CO2. The right atrium with the right cardiac auricle attached thereto was separated carefully enough to avoid damages. Blood vessels and tissues attached around the separated organ were removed. Both ends of the separated right cardiac auricle were held with threaded Serfin, and the thread at one end was fixed in a tissue tank filled with the nutrient solution, and the thread at the other end connected to a tension measuring and recording instrument and loaded with 1-g weight. The nutrient solution in the tissue tank was maintained at a temperature of 30° C. and consistently aerated with a 95% O2 +5% CO2 gas. The nutrient solution was exchanged every 5-10 min.
After spontaneous contractions of the isolated right atrium specimen were stabilized, and the heart rate became constant, histamine was cumulatively introduced into the tissue tank. Thus, histamine was introduced cumulatively starting at 10^-7 M and gradually at 3×10^-7 M, 10^-6 M, […], and so on. When the heart rate became constant at a given concentration, the concentration was further increased, and the cumulative introduction of histamine was continued until the heart rate no more increased. There was then determined a histamine dose-response curve.
Antagonistic action of the phenol derivatives of the invention against histamine H2 receptors was tested using the isolated right atrium specimen previously employed for determining a histamine dose-response curve. Thus, said specimen with the increased heart rate by the cumulative introduction of histamine was repeatedly washed with a nutrient solution to remove the histamine. When the heart rate was decreased by the histamine removal to a constant level, a phenol derivative of the invention was introduced into the tissue tank. After the introduction of said phenol derivative, histamine was cumulatively introduced sufficiently to determine a histamine dose-response curve in the presence of said phenol derivative. Antagonistic action of the phenol derivatives of the invention is determined by measuring the distance (mm) at 50% reaction between the dose-response curve in the absence of said phenol derivative and one in the presence of said phenol derivative and calculating pA2 on the basis of the distance from the Van Rossum simplified table.
Note that the pA2 in the table means a -log value of the concentration of a phenol derivative of the invention necessary for parallel displacement of the histamine dose-response curve to the side of a twice increase in concentration.

T2 sequence (P47747 whole entry): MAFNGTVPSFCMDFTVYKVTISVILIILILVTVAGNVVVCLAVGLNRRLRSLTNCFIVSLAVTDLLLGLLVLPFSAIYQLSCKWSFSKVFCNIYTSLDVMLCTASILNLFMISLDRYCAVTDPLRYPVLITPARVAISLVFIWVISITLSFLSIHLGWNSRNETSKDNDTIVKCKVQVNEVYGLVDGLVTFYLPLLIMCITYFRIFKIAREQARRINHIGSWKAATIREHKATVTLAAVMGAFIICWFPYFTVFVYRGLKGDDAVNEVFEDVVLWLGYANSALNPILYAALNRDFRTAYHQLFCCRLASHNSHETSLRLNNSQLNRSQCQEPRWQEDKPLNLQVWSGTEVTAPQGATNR

IC50 [1] [µM]	Kb [3] [µM]	SMILES	Inhibitory activity against ethanol hydrochloric acid ulcer, Percent inhibition of ulceration [2] [%]
6.1	0.0575	COc1cc(CCCCC(=O)NCCCOc2cccc(CN3CCCCC3)c2)ccc1O [Example 1, N-[3-(3(1-piperidinylmethyl)phenoxy)propyl]-5-(4-hydroxy-3methoxyphenyl)pentylamide]	89.5
120	0.316	O=C(CCCCc1ccc(O)cc1)NCCCOc1cccc(CN2CCCCC2)c1 [Example 2, N-[3-(3-(1piperidinylmethyl)phenoxy)propyl]-5-(4-hydroxyphenyl)-pentylamide]	33.4
20	2.57	CC(C)(C)c1cc(CCCCC(=O)NCCCOc2cccc(CN3CCCCC3)c2)cc(C(C)(C)C)c1O [Example 3, N-[3-(3-(1-piperidinylmethyl)phenoxy)propyl]-5-(3,5-di-tert-butyl-4-hydroxyphenyl)pentylamide]	42.9
13	0.49	COc1cc(CCCCC(=O)NCCCOc2cccc(CN3CCCCC3)c2)cc(OC)c1O [Example 4, N-[3-(3-(1-piperidinylmethyl)phenoxy)propyl]-5-(4-hydroxy-3,5-dimethoxyphenyl)pentylamide]	62.5
32	0.631	COc1cc(CCC(=O)NCCCOc2cccc(CN3CCCCC3)c2)ccc1O [Example 5, N-[3-(3-(1-piperidinylmethyl)phenoxy)propyl]-3-(4-hydroxy-3-methoxyphenyl)propylamide]	48.0
8.9	0.0501	COc1cc(CCCC(=O)NCCCOc2cccc(CN3CCCCC3)c2)ccc1O [Example 6, N-[3-(3-(1-piperidinylmethyl)phenoxy)propyl]-4-(4-hydroxy-3-methoxyphenyl)butylamide]	76.5
5.9	0.141	O=C(CCCCc1ccc(O)c(O)c1)NCCCOc1cccc(CN2CCCCC2)c1 [Example 7, N-[3-(3-(1piperidinylmethyl)phenoxy)propyl]-5-(3,4dihydroxyphenyl)pentylamide]	83.7
